Assay [1] deals with K562. Put plainly: Cytotoxicity against human K562 cells by alamar blue assay. Type of assay: functional. In general terms: Alamar Blue is a resazurin reagent that responds to reducing activity.
Assay [2] relates to DU-145. Put plainly: Cytotoxicity against human DU145 cells by alamar blue assay. Type of assay: functional.
In assay [3] the test system is LOX IMVI. Put plainly: Cytotoxicity against human LOXIMVI cells by alamar blue assay. Type of assay: functional.
Assay [4] has as its system A549. Put plainly: Cytotoxicity against human A549 cells by alamar blue assay. Type of assay: functional.
The subject of assay [5] is MCF7. Put plainly: Cytotoxicity against human MCF7 cells by alamar blue assay. Type of assay: functional.
In assay [6] the test system is RPMI-8226. Put plainly: Cytotoxicity against human RPMI8226 cells by alamar blue assay. Type of assay: functional.
The test system of assay [7] is Nucleic Acid. Put plainly: Induction of Escherichia coli pUC18 DNA interstrand crosslinking activity assessed as time required to reach peak. Type of assay: nucleic-acid assay.
A short description of assay [8]: Cytotoxicity against human LNCaP-FGC cells by alamar blue assay. Particulars: LNCaP-Clone-FGC. Type of assay: functional.
The subject of assay [9] is A2780. Put plainly: Cytotoxicity against human A2780 cells by alamar blue assay. Type of assay: functional.

Usually GI50 stands for the concentration at which growth is held to half of that of the control.

For the compound `C=C1C[C@H]2C=Nc3cc(OCCCOc4cc5c(cc4OC)C(=O)N4CC(=C)C[C@H]4C=N5)c(OC)cc3C(=O)N2C1` [SJG-136], the GI50 in assay [1] worked out at 0.419 nM.

For the compound `COc1ccc(C2=CN3C(=O)c4cc(OC)c(OCCCOc5cc6c(cc5OC)C(=O)N5C=C(c7ccc(OC)cc7)C[C@H]5C=N6)cc4N=C[C@@H]3C2)cc1`, the GI50 was 0.0154 nM in assay [2]; 0.0225 nM in [3]; 0.033 nM in assay [4]; 0.0186 nM in assay [5]; 0.0051 nM in assay [6]; 0.013 nM in assay [1]. The GI50 was found to be 0.0027 nM in [8] and 0.0024 nM in assay [9]. In addition, the Activity in assay [7] came out at 2 h.
